Experimental data from PMC4148444, “P. aeruginosa SGNH Hydrolase-Like Proteins AlgJ and AlgX Have Similar Topology but Separate and Distinct Roles in Alginate Acetylation” (PLoS Pathogens, 2014).

Legend:
[1] = target: T1, PaAlgJ79–379 (Pseudomonas aeruginosa, UniProt Q51393); test: direct ESI-MS binding assay; conditions: 50 mM ammonium acetate, pH 7, 298 K; only folded (low charge state) fraction used, its concentration not accurately known; read-out: Apparent K a (M^-1) AlgJ
T1 construct: gene algJ; soluble periplasmic domain 79-379 without TM helix 12-29; N-terminal His6 thrombin-cleaved; expressed in E. coli BL21-CodonPlus; monomer by SEC
Description: direct ESI-MS binding assay on PaAlgJ79–379

[2] = target: T2, PaAlgX27–474 (Pseudomonas aeruginosa, UniProt Q51372); test: direct ESI-MS binding assay; conditions: 50 mM ammonium acetate, pH 7, 298 K; corrected for nonspecific binding; site (active site or CBM) not resolved; read-out: Apparent K a (M^-1) AlgX
T2 construct: gene algX; residues 27-474 (mature protein, SGNH hydrolase-like domain plus C-terminal CBM)
Description: direct ESI-MS binding assay on PaAlgX27–474

[3] = system: CC(=O)Oc1ccc2cc(C(=O)O)c(=O)oc2c1; test: fluorescence acetylesterase assay; format: biochemical, Pseudomonas putida; conditions: 50 mM sodium HEPES pH 7.0, 298 K, up to 10% DMSO, kcat given as (×10^3 s^-1), kcat/Km implies ×10^-3, 25.0 °C
Description: fluorescence acetylesterase assay on PpAlgJ75–370

[4] = system: CC(=O)Oc1ccc2cc(C(=O)O)c(=O)oc2c1; test: purified protein; conditions: up to 10% DMSO, kcat given as (×10^3 s^-1), kcat/Km implies ×10^-3, 25.0 °C
[5] = 50 mM sodium HEPES pH 7.0, 298 K
[6] = 50 mM sodium HEPES pH 8.0, 298 K

T2 sequence (Q51372 27-474): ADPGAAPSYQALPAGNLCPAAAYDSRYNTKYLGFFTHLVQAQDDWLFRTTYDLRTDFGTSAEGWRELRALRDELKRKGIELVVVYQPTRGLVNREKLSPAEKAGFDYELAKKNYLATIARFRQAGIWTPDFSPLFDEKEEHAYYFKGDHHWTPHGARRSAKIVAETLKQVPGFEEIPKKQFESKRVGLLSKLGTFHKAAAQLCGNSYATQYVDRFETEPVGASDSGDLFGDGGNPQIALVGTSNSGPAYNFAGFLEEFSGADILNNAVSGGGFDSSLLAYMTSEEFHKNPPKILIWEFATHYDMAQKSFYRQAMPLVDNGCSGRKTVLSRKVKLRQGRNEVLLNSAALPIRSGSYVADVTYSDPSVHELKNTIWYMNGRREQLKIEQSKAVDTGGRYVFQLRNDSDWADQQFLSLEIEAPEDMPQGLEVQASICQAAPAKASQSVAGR
T1 sequence (Q51393 79-379): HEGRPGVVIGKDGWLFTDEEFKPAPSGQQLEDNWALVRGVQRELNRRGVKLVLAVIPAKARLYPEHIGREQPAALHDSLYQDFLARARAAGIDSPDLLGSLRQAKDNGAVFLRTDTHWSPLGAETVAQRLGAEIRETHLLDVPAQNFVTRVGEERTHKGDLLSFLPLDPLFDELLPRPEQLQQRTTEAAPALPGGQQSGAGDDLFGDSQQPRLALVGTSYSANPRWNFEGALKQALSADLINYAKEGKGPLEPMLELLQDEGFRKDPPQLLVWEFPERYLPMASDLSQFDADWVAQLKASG

ManA7
Kd [1]: > 2000 µM | Kd [2]: 208 µM

ManA11
Kd [2]: 62.5 µM

PpAlgJ75–370 (Pseudomonas putida KT2440)
Km [3]: 2300 ± 96.3 µM | kcat [3]: 7.80±0.155 ×10^-3 s^-1 | kcat/Km [3]: 3.39 ± 0.0688 M⁻¹ s⁻¹

CCCO[C@@H]1O[C@H](C(=O)O)[C@@H](O[C@@H]2O[C@H](C(=O)O)[C@@H](O[C@@H]3O[C@H](C(=O)O)[C@@H](O[C@@H]4O[C@H](C(=O)O)[C@@H](O[C@@H]5O[C@H](C(=O)O)[C@@H](O[C@@H]6O[C@H](C(=O)O)[C@@H](O)[C@H](O)[C@@H]6O)[C@H](O)[C@@H]5O)[C@H](O)[C@@H]4O)[C@H](O)[C@@H]3O)[C@H](O)[C@@H]2O)[C@H](O)[C@@H]1O [ManA6]
Kd [1]: > 2000 µM | Kd [2]: 312 µM

ManA12
Kd [2]: 52.6 µM

O=C(O)C1OC(OC2C(C(=O)O)OC(OC3C(C(=O)O)OC(OC4C(C(=O)O)OC(OC5C(C(=O)O)OC(O)C(O)C5O)C(O)C4O)C(O)C3O)C(O)C2O)C(O)C(O)C1O (stereo not shown) [ManA5]
Kd [1]: > 2000 µM | Kd [2]: 1000 µM

ManA8
Kd [2]: 172 µM

O=C(O)C1OC(OC2C(C(=O)O)OC(OC3C(C(=O)O)OC(OC4C(C(=O)O)OC(O)C(O)C4O)C(O)C3O)C(O)C2O)C(O)C(O)C1O (stereo not shown) [ManA4]
Kd [1]: > 2000 µM | Kd [2]: 1000 µM

ManA9
Kd [2]: 114 µM

ManA10
Kd [2]: 100 µM

PaAlgJ79–379 (Pseudomonas aeruginosa PAO1)
Km [4, 5]: 1160 ± 120 µM | kcat [4, 5]: 3.44±0.129 ×10^-3 s^-1 | kcat/Km [4, 5]: 2.96 ± 0.324 M⁻¹ s⁻¹

PaAlgX27–474 (Pseudomonas aeruginosa PAO1)
Km [4, 6]: 1100 ± 96 µM | kcat [4, 6]: 11.4±0.343 ×10^-3 s^-1 | kcat/Km [4, 6]: 10.3 ± 0.961 M⁻¹ s⁻¹
